Assays:
[1] = tested on: mushroom tyrosinase; test: Mushroom tyrosinase inhibition assay; type: biochemical
Method: 60 μl of a 1 M phosphate buffer (pH 6.8), 10 μl of a sample solution, and 20 μl of 500 U/ml mushroom tyrosinase were sequentially added, and then incubated at room temperature for 5 minutes. After incubation, 60 μl of an aqueous solution containing 1 mM L-tyrosine was added to initiate a reaction. The reaction was performed at 37° C. for 30 minutes, and absorbance was measured at 490 nm. Mushroom tyrosinase inhibition activity was calculated by the following equation.
Mushroom tyrosinase inhibition activity (%)=(B−A)/A×100
(§1) A: OD490 value of treated group
B: OD490 value of blank control

[2] = tested on: tyrosinase in B16F10 cells; test: Tyrosinase inhibition activity in B16F10 cells; type: cell-based, mouse; settings: α-MSH for one day, then 0.625, 1.25 and 2.5 mM, measured after 24 and 48 hours (FIG. 3)
Method: Cultured cells were harvested by adding […]. After harvesting, 500 μl of a cell lysis buffer (10 mM sodium phosphate buffer containing 1% Triton X-100 and 0.1 mM PMSF) was added to the harvested cells. To lyse the cells, sonication was performed on the cells and subsequently the cells were incubated on ice for 30 minutes. The lysed cells were centrifuged at 13000 rpm for 30 minutes, and the obtained cell lysate was used to measure tyrosinase activity.
To evaluate the inhibitory efficacy of verbenone against tyrosinase in B16F10 mouse melanoma cells, B16F10 cells were treated with α-MSH for one day to increase tyrosinase. Then, the cells were treated with verbenone at concentrations of 0.625, 1.25 and 2.5 mM, respectively, and tyrosinase activity was measured after 24 and 48 hours, respectively.

[3] = tested on: TRP-1, TRP-2, tyrosinase and MITF; test: Western blot of melanogenesis-related proteins in B16F10 cells; type: cell-based, mouse
Method: After 24 hours, the cells were treated with verbenone at concentrations of 0.625, 1.25, and 2.5 mM, respectively, followed by culturing for 72 hours. The cultured cells were harvested and washed three times with PBS. Then, to lyse the cells, 500 μl of a lysis buffer was added to the cells and the cells were sonicated, followed by incubation for 30 minutes. After cell lysis, centrifugation was performed at 12,000 rpm and 4° C. for 30 minutes to obtain a supernatant. Protein concentration was quantified using bovine serum albumin (BSA) as a standard. Equivalent amounts of the denatured lysates were loaded onto a 12% sodium dodecyl sulfate-polyacrylamide gel, and electrophoresis was performed at 45 mA to separate proteins. After sodium dodecyl sulfate-polyacrylamide gel electrophoresis (SDS-PAGE), the separated proteins present in the gel were transferred onto a membrane at 150 V for 80 minutes. Then, blocking of the membrane was performed for overnight using TTBS (TBS+0.1% Tween 20) solution containing 5% skim milk. Primary antibodies against melanogenesis-related proteins and actin were prepared in a ratio of 1:1,000, and a primary antibody reaction was performed at room temperature for 3 hours. Anti-rabbit IgG and anti-mouse IgG were used as secondary antibodies and diluted 1:5,000. A secondary antibody reaction was performed at room temperature for 1 hour. […]

[4] = tested on: B 16F10 melanoma cells; test: Measurement of melanin content in B16F10 cells; type: cell-based, mouse
Method: B 16F10 melanoma cells, obtained from mice, were used as melanin-producing cells. The cultured B 16F10 cells were treated with […] α-melanocyte-stimulating hormone (α-MSH) (a control group). After 1 day, 2.5, 1.25, 0.625 mM verbenone and 2 mM arbutin (a positive control group) were added to the cells, the cells were cultured for 1 day and 2 days, respectively (experimental groups). The cultured cells were washed twice with PBS and harvested by centrifugation at 1500 rpm for 5 minutes. 300 ill of 1 N NaOH containing 10% DMSO was added to the cell pellet and then incubated at 80° C. for 1 hour to dissolve melanin. Melanin content was calculated by the following equation.
Melanin content (%)=A/B×100
as §1
B: OD490 value of non-treated group

Row | mushroom tyrosinase inhibition activity ([1]; 2.5 and 5 mM verbenone (FIG. 2)) | Structure (SMILES) | mushroom tyrosinase inhibition activity ([1]; kojic acid control at 200, 400 or 800 μM (FIG. 2)) | tyrosinase activity in B16F10 cells [2] | expression levels of the melanogenesis-related proteins ([3]; 20 nM α-MSH for 24 hours, then 0.625, 1.25, 2.5 mM, western blotting (FIG. 6A)) | expression levels of melanogenesis-related proteins TRP-1, TRP-2, tyrosinase and MITF ([3]; without α-MSH, 0.625, 1.25, 2.5 mM, 72 hours, western blotting (FIG. 6B)) | color of the cell pellet ([4]; 20 nM α-MSH + 0.625, 1.25, 2.5 mM verbenone (FIG. 5)) | change in melanin content in B 16F10 cells ([4]; screen of six rosemary components, various concentrations, 72 hours, 490 nm, compared to arbutin-treated cells (FIG. 1)) | melanin content in B16F10 cells ([4]; α-MSH 24 hours, then 0.625, 1.25 and 2.5 mM, measured after 24 and 48 hours (FIG. 4))
1 | – | O=c1cc(CO)occ1O [kojic acid, reference compound] | observed in a concentration-dependent manner | – | – | – | – | – | –
2 | no inhibitory effect was observed | CC1=CC(=O)[C@@H]2C[C@H]1C2(C)C [verbenone] | – | inhibited tyrosinase in B16F10 cells | reduced in the verbenone-treated group in a concentration-dependent manner | decreased by verbenone in a concentration-dependent manner | weakened by verbenone in a concentration-dependent manner | most significantly decreased | reduced by verbenone in B16F10 cells in a concentration-dependent manner

— patent US20180353403A1, “SKIN-WHITENING COSMETIC COMPOSITION CONTAINING ROSEMARY-DERIVED VERBENONE AS ACTIVE INGREDIENT” (Jeju National University Industry-Academic Cooperation …, priority 2014, published 2018)
